Tests used:
[1] = target: Mitogen-activated protein kinase kinase kinase 8 (Homo sapiens) (UniProt P41279); assay: Residual activity of COT at 0.1 uM by microplate scintillation counting
[2] = target: Serine/threonine-protein kinase 33 (Homo sapiens) (UniProt Q9BYT3); assay: Residual activity of STK33 at 10 uM by microplate scintillation counting
[3] = target: Maternal embryonic leucine zipper kinase (Homo sapiens) (UniProt Q14680); assay: Residual activity of MELK at 0.1 uM by microplate scintillation counting
Chain of Maternal embryonic leucine zipper kinase (Homo sapiens) (Q14680 whole entry, looked up): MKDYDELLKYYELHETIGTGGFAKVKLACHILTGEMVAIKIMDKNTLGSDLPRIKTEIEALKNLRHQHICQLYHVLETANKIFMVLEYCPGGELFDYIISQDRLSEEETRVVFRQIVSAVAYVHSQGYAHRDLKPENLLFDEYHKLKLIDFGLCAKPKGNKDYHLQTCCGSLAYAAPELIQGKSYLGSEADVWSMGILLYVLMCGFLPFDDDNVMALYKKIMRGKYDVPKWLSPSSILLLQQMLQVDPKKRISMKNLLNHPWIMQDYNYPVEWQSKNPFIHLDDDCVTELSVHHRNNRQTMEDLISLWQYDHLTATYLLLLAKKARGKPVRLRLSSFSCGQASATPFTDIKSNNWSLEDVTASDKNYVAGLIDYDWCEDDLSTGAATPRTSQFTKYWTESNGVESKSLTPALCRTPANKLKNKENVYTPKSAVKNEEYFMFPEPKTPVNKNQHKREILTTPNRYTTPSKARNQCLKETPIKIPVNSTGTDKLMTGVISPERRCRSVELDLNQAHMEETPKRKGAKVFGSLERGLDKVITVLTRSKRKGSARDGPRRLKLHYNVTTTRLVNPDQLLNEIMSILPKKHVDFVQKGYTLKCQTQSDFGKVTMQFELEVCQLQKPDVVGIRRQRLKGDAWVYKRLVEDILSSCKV

[4] = target: T1, Tyrosine-protein kinase receptor TYRO3 (Homo sapiens) (UniProt Q06418); assay: Residual activity of TYRO3 at 1 uM by microplate scintillation counting
T1 sequence (whole entry): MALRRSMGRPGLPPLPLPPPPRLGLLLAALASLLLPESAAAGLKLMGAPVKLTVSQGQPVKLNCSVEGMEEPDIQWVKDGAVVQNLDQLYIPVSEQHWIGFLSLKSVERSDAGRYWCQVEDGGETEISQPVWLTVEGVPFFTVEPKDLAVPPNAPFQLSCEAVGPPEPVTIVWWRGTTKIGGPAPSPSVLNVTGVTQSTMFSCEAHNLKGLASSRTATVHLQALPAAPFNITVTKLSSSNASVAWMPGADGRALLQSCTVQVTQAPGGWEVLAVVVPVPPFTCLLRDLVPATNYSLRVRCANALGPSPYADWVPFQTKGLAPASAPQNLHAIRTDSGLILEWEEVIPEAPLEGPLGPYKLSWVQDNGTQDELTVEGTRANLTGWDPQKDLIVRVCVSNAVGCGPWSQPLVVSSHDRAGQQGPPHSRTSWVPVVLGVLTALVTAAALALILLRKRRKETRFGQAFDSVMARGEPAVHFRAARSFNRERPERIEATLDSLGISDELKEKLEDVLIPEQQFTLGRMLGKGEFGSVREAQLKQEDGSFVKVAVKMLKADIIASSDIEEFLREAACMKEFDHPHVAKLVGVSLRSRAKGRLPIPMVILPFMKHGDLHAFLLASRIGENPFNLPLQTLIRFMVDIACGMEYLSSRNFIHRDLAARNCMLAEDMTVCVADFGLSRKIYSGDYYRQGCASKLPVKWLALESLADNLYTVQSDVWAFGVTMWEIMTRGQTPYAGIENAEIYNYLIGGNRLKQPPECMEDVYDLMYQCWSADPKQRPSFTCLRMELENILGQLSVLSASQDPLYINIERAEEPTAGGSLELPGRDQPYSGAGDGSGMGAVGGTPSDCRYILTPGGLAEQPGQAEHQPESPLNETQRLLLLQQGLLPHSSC

[5] = target: T2, Protein kinase C epsilon type (Homo sapiens) (UniProt Q02156); assay: Residual activity of PKCepsilon at 10 uM by microplate scintillation counting
T2 sequence (whole entry): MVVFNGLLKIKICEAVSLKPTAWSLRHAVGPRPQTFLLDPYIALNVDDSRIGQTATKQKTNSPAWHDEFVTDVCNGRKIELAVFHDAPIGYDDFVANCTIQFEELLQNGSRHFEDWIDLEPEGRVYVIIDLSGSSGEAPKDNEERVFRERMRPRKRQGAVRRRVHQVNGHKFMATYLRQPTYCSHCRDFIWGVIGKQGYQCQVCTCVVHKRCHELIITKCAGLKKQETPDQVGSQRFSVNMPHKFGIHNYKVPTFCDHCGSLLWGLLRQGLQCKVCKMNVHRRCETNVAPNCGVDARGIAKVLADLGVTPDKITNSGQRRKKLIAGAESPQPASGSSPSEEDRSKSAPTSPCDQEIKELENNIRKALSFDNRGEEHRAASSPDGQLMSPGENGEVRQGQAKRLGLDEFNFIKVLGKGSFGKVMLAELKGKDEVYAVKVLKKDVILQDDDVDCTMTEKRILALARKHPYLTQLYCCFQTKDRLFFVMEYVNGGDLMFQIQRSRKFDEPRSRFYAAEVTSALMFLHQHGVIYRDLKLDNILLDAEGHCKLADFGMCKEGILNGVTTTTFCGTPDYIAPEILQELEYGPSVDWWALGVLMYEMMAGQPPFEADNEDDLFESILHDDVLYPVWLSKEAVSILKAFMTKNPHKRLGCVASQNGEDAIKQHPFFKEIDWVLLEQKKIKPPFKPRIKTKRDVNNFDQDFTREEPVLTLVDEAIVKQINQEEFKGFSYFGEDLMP

[6] = target: Proto-oncogene tyrosine-protein kinase receptor Ret (Homo sapiens) (UniProt P07949); assay: Residual activity of RET at 0.1 uM by microplate scintillation counting
Chain of Proto-oncogene tyrosine-protein kinase receptor Ret (Homo sapiens) (P07949 whole entry): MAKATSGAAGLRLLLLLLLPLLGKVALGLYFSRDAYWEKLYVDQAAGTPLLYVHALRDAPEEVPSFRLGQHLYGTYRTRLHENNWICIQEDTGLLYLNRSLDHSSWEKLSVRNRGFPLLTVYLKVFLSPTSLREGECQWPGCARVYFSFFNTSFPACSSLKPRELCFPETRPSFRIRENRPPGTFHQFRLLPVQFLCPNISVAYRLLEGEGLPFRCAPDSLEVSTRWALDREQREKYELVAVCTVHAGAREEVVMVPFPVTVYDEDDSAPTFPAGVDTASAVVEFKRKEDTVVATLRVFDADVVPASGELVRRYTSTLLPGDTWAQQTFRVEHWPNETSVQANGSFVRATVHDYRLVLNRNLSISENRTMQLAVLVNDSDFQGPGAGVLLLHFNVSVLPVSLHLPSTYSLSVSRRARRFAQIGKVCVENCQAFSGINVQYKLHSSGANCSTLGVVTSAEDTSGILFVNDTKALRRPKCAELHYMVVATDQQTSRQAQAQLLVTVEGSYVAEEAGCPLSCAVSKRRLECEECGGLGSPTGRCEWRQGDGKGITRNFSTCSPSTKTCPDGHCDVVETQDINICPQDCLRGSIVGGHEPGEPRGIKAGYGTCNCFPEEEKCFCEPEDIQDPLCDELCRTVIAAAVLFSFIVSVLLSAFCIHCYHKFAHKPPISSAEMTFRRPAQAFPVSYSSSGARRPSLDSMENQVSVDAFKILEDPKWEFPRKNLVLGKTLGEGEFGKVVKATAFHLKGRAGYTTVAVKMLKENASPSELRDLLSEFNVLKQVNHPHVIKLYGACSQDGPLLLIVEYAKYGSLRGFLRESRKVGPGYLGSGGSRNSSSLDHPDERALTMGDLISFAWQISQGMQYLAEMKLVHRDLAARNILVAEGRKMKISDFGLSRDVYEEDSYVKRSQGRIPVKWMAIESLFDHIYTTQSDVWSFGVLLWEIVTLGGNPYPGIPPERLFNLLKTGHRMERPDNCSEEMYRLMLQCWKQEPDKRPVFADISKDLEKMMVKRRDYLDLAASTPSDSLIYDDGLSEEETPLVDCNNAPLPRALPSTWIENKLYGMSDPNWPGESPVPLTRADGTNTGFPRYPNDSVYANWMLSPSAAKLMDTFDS

[7] = target: Macrophage-stimulating protein receptor (Homo sapiens) (UniProt Q04912); assay: Residual activity of RON at 1 uM by microplate scintillation counting
Chain of Macrophage-stimulating protein receptor (Homo sapiens) (Q04912 25-304 limits assumed): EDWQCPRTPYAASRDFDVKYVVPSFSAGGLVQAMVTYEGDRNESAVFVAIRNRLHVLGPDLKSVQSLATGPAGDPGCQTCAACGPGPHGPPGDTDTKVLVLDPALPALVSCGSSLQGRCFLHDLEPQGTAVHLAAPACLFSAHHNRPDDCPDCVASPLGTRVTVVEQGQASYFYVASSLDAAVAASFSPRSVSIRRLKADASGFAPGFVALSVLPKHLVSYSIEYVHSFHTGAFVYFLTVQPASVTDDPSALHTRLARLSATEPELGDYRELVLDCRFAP
Chain of Macrophage-stimulating protein receptor (Homo sapiens) (Q04912 310-1400 limits assumed): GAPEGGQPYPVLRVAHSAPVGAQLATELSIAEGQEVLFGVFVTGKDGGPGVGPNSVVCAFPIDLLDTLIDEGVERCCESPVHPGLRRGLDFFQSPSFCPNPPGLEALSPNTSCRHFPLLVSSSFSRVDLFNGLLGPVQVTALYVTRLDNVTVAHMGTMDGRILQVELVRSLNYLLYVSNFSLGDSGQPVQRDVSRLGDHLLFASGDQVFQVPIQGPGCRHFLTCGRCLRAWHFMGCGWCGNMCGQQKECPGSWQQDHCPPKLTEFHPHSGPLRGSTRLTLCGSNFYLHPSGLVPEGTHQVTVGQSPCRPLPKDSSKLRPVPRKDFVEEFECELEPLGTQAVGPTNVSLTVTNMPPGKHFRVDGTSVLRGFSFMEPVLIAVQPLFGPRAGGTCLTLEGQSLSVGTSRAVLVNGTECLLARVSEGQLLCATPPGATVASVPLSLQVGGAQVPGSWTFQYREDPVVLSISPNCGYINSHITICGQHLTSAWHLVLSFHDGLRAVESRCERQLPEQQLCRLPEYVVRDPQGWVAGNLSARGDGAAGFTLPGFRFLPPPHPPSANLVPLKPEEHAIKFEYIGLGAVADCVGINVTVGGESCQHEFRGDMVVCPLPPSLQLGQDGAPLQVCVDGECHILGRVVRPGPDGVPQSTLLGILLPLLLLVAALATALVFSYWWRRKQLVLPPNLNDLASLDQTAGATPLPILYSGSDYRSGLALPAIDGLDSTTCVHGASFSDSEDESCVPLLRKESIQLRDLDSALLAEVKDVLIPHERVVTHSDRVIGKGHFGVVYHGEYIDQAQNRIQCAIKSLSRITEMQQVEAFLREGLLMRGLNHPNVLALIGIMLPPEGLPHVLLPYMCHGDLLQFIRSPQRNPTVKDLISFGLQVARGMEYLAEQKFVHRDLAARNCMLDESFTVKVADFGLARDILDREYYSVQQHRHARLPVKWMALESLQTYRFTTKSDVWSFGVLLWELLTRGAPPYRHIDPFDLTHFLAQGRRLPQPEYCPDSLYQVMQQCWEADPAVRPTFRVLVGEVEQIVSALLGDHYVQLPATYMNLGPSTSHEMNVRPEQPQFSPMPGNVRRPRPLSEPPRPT

[8] = test system: Tyrosine-protein kinase ABL1 (Homo sapiens), P00519 [T315I]; assay: Residual activity of ABL1 T315I mutant at 10 uM by microplate scintillation counting
[9] = target: Tyrosine-protein kinase ABL1 (Homo sapiens) (UniProt P00519); assay: Residual activity of wild type ABL1 at 10 uM by microplate scintillation counting

Chain of Mitogen-activated protein kinase kinase kinase 8 (Homo sapiens) (P41279 whole entry): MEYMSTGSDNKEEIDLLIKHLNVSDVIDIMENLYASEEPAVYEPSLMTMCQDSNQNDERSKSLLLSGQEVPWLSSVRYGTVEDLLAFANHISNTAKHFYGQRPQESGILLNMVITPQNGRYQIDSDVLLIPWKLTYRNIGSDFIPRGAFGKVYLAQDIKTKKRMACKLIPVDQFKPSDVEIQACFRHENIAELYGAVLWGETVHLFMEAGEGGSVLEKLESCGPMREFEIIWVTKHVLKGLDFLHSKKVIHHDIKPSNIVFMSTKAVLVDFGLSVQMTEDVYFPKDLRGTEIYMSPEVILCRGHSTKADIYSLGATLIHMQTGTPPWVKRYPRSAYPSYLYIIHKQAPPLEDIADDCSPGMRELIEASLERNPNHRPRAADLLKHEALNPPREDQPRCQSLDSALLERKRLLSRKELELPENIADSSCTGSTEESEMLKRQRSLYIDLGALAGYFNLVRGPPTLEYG
Chain of Serine/threonine-protein kinase 33 (Homo sapiens) (Q9BYT3 whole entry, looked up): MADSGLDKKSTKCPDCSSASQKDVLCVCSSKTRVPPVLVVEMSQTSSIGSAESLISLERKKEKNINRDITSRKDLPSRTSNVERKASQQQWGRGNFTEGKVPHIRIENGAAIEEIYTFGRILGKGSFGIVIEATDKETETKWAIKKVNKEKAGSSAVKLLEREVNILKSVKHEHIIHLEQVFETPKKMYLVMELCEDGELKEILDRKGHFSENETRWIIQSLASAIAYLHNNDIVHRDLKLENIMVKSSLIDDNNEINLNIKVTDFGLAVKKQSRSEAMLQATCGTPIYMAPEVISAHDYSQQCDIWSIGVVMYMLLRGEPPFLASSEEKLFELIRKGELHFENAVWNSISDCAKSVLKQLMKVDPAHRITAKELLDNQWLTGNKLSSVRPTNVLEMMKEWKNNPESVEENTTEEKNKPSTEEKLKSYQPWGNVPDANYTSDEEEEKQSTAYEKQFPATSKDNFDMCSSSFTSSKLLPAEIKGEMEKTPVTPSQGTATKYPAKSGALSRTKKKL

SMILES | residual activity [1] [%] | residual activity [2] [%] | residual activity [3] [%] | residual activity [4] [%] | residual activity [5] [%] | residual activity [6] [%] | residual activity [7] [%] | residual activity [8] [%] | residual activity [9] [%]
COc1cc2c(Oc3ccc(-c4nc5ccccc5s4)cc3F)ncnc2cc1OCCCN1CCN(C)CC1 | 78 | 94 | 60 | 103 | 135 | 101 | 35 | 31 | 26
COc1cc2c(Oc3ccc(-c4nc5ccccc5s4)cc3)ncnc2cc1OCCCN1CCCC1 | 73 | 107 | 34 | 103 | 142 | 97 | 60 | 43 | 41
COc1cc2c(Oc3ccc(-c4nc5ccccc5s4)cc3)ncnc2cc1OCCCN1CCN(C)CC1 | 101 | 81 | 111 | 100 | 128 | 92 | 48 | 44 | 28

Reference: ChEMBL document CHEMBL1152560, “Substituted 2-arylbenzothiazoles as kinase inhibitors: hit-to-lead optimization” (Bioorg Med Chem, 2009)
